The source of these data is patent publication US9427438B2, “Compositions and methods for treating Alzheimer's disease” (EIP Pharma, LLC, priority 2011, dated 2016).

SMILES strings stand for the structures.

Data set [1] deals with Alzheimer's disease (AD) transgenic Tg2576 mouse model. Briefly: Amyloid plaque load by Aβ immunohistochemistry after 2-week oral treatment of Tg2576 mice. The following applies: Tg2576 mice aged 26 months, 3 mg/kg BID oral, 2 weeks. Type of data set: in vivo.
For data set [2], the system named is IL-1β. Briefly: IL-1β ELISA of brain tissue of treated Tg2576 mice. The note with it: 3 mg/kg BID, 2 weeks, soluble dorsal cortex fraction. It is filed as in vivo, mouse. In general terms: In an ELISA, binding on a coated surface is turned into a signal by an enzyme label.
Data set [3] relates to arthritis model. The following applies: 10 mg/kg dose, reference compound; cited from earlier work.
For data set [4], the system named is rodent arthritis models. The note with it: cited from earlier work.
The subject of data set [5] is osteoarthritis model. The following applies: rats, 50 mg/kg; cited from earlier work.
For data set [6] the following is noted: cited from earlier work.
The conditions of data set [7]: dogs; cited from earlier work.
For data set [8] the following is noted: high doses; cited from earlier work.
The conditions of data set [9]: cited from earlier work. This is another data set of the same source.
For data set [10] the following is noted: animals; cited from earlier work.
The test system of data set [11] is hyperalgesia model. The following applies: cited from earlier work.
For data set [12], the system named is p38 MAPK. The note with it: neurons preincubated in vitro; cited from earlier work.

Take `O=c1ncn2nc(Sc3ccc(F)cc3F)ccc2c1-c1c(Cl)cccc1Cl` [VX-745]: the “decrease of amyloid plaque area in the cortex as compared with vehicle” value in data set [1] (cortex) is 32.5%. The “mean amyloid plaque area, cortex” value in data set [1] (cortex (vehicle control 27.7%)) is 18.7%. In addition, in [1] (hippocampus), the “decrease of amyloid plaque area in the hippocampus as compared with vehicle” value was 61.8%. Besides, in data set [1] (hippocampus (vehicle control 13.6%)), the “mean amyloid plaque area, hippocampus” value was determined as 5.2%. Moreover, in [2], the “IL-1β levels compared to wild-type or control animals” value is “no increases in IL-1β levels”. Moreover, the “inhibition of paw swelling” value in data set [3] was “not as effective at inhibiting paw swelling as other compounds assayed”. Further, the anti-inflammatory activity result in data set [4] is listed as “significant anti-inflammatory activity”. For the same compound, the “inhibition of knee degeneration compared to control animals” value in data set [5] is reported as “statistically significant inhibition of knee degeneration”. Further, in [6] (250 mg b.i.d., humans), the “adverse events in rheumatoid arthritis patients” value is “adverse events, including gastrointestinal effects such as diarrhea and abdominal pain, and elevations in liver transaminases”. In addition, the “adverse neurological effects in humans” value in data set [6] is “not observed in humans”. Further, the “therapeutically effective unit dose for the treatment of rheumatoid arthritis” value in [6] (humans) was 250 mg. Besides, the “brain levels relative to systemic levels” value in data set [7] is “twice that of systemic levels”. Besides, in data set [8], the “adverse neurological effects in animals” value is “experienced adverse neurological effects”. The plasma protein binding result in data set [9] is listed as “highly protein-bound”. Moreover, the “blood brain barrier penetration” value in [10] is recorded as “known to penetrate the blood brain barrier (BBB)”. In data set [11] (3 mg/kg dose), the “effect on hyperalgesia at the lowest dose” value was “minimal effect”. Besides, the “inhibition of hyperalgesic response” value in data set [11] (rats, doses of 30 mg/kg, 10 mg/kg and 3 mg/kg) is “significant inhibition of hyperalgesic response”.

Take `C[S+]([O-])c1ccc(-c2nc(-c3ccc(F)cc3)c(-c3ccncc3)[nH]2)cc1` (stereo not drawn) [SB203580]: the “blocking of the enhancement of MAPT phosphorylation” value in data set [12] is “could be blocked”.
